Assay results as given in patent US20070116836A1, “High-Potency Sweetener Composition for Treatment and/or Prevention of Osteoporosis and Compositions Sweetened Therewith” (THE COCA-COLA COMPANY, priority 2005, published 2007).

Columns and labels:
[1] = Sensory evaluation of sweetness linger by expert panel, Example Set G (citric acid/potassium citrate base); assay type: in vivo; parameters: key: 0=no sweetness linger; 1=very slight sweetness linger; 2=slight sweetness linger; 3=moderate sweetness linger; 4=moderately high sweetness linger; 5=high sweetness linger; details: scale 0-5; 400 ppm REBA in citric acid/potassium citrate composition equivalent to diet lemon-lime beverage, additive per example; sugar control 8 g in 100 ml citrate buffer
Description: Sensory evaluation of the samples prepared in Example Set G was carried out under the following protocol, similar to that described hereinabove. In this test protocol, none of the samples were swallowed. All samples were expectorated and the mouth was rinsed with water after the tasting. Immediately upon sensing maximal sweetness, the sample was expectorated, the mouth was rinsed with water and the rate of sweetness decay (“Sweetness Linger”) was measured, where attention was focused on the sweetness 3-4 min after the water rinse. After sample tasting was complete, a salty oyster cracker was chewed followed by a water rinse, and at least 5 minutes followed before tasting the next sample. […]
The effects of formulation change on the sweetness linger of 400 ppm REBA (equivalent to 8 g sucrose) in a citric acid/potassium citrate composition equivalent to that in a diet lemon-lime beverage were evaluated. The sweetness linger rating of this solution was determined to be 5.
8 g of sugar was dissolved in 100 ml of citrate buffer. The sweetness linger rating of this control sample was determined to be 0.

[2] = Sensory evaluation of sweetness linger by expert panel, Example Set H (phosphoric acid base); assay type: in vivo; parameters: key: 0=no sweetness linger; 1=very slight sweetness linger; 2=slight sweetness linger; 3=moderate sweetness linger; 4=moderately high sweetness linger; 5=high sweetness linger; details: scale 0-5; 500 ppm REBA (H41: 360 ppm) in carbon-treated water, phosphoric acid (75%) to pH 2.4-2.5, additive per example; sugar control 10 g in 100 ml
[3] = Rate of dissolution in H2O at 25° C. of rebaudioside A polymorph and amorphous forms; assay type: physicochemical; details: grade in words

Row | Compound | Sweetness linger [1] | Sweetness linger [2] | Rate of dissolution in H2O at 25° C. [3]
1 | OC[C@H]1O[C@@](CO)(O[C@H]2O[C@H](CO)[C@@H](O)[C@H](O)[C@H]2O)[C@@H](O)[C@@H]1O [sugar, sucrose] | 0 | 0 | 
2 | rebaudioside A | 5 | 5 | 
3 | rebaudioside A [Form 1] |  |  | Very low
4 | rebaudioside A [Form 2] |  |  | Intermediate
5 | rebaudioside A [Form 3] |  |  | High
6 | rebaudioside A [Form 4] |  |  | High
